Assay results taken from patent US9212348B2, “Method for producing hematopoietic stem cells using pyrazole compounds” (NISSAN CHEMICAL INDUSTRIES, LTD., priority 2010, dated 2015).

Key:
CD34+CD38- cells = assay: Assay Example 3: expansion of CD34+CD38- cells using human cord blood-derived CD34+ cells (Table 22); assay type: cell-based; details: based on number of CD34+CD38- cells in absence of compound; 0.01 to 10 μg/mL compound; 100 ng/mL SCF and 20 ng/mL TPO; 7 days
Protocol: Human cord blood-derived CD34^+ cells purchased from the same supplier as in Assay Example 1 were plated on a 24-well plate (Corning) (10000 cells/1 mL/well). As the culture medium, StemSpan SFEM (StemCell Technologies) containing 100 ng/mL SCF (Wako Pure Chemical Industries) in terms of final concentration and 20 ng/mL TPO (PeproTech) in terms of final concentration was used, and Compounds Nos. 1-01 to 4-91 dissolved in dimethyl sulfoxide were added in an amount of 0.1% (v/v) to a final concentration of 0.01 to 10 μg/mL. As a negative control, the medium containing 0.1% (v/v) dimethyl sulfoxide was used.
After the cells were incubated in liquid culture at 37° C. for 7 days in a CO2 incubator (5% CO2), the number of viable cells was counted by trypan blue assay. The number of CD34^+CD38^− cells was calculated in the same manner as in Assay Example 1.

melting point [°C]	Compound	Expansion efficiency (CD34+CD38- cells)
	CCCCCCc1ccc(-c2c(C(C)C)nn(C(C)(C)Cc3ccc(C)cc3)c2O)cc1 [Compound No. 3-07, 4-(4-hexylphenyl)-3-isopropyl-1-(2-methyl-1-p-tolylpropan-2-yl)-1H-pyrazol-5-ol]	A (A for expansion efficiencies of 4 or greater)
	CC(C)C1=NN(C(C)(C)Cc2ccc(Br)cc2)C(=O)C1 [Compound No. 3-12, 1-(1-(4-bromophenyl)-2-methylpropan-2-yl)-3-isopropyl-1H-pyrazol-5(4H)-one]	B (B for expansion efficiencies of at least 3 and less than 4)
	CC(C)(Cc1ccccc1)N1N=C(c2ccccc2)CC1=O [Compound No. 3-16, 1-(2-methyl-1-phenylpropan-2-yl)-3-phenyl-1H-pyrazol-5(4H)-one]	A (A for expansion efficiencies of 4 or greater)
	CC(C)C1=NN(C(C)(C)Cc2ccccc2)C(=O)C1Br (stereo not shown) [Compound No. 3-47, 4-bromo-3-isopropyl-1-(2-methyl-1-phenylpropan-2-yl)-1H-pyrazol-5(4H)-one]	C (C for expansion efficiencies of at least 1.5 and less than 3)
	COC(=O)CC1=NN(C(C)(C)c2ccccc2)C(=O)C1 [Compound No. 4-01, methyl 2-(5-oxo-1-(2-phenylpropan-2-yl)-4,5-dihydro-1H-pyrazol-3-yl)acetate]	C (C for expansion efficiencies of at least 1.5 and less than 3)
	COC(=O)c1ccc(-c2c(C(C)C)nn(C(C)(C)Cc3ccccc3)c2O)cc1 [Compound No. 4-23, methyl 4-(5-hydroxy-3-isopropyl-1-(2-methyl-1-phenylpropan-2-yl)-1H-pyrazol-4-yl)benzoate]	A (A for expansion efficiencies of 4 or greater)
140 to 142	CCCCCCc1ccc(-c2c(C#N)nn(C(C)(C)Cc3ccc(C)cc3)c2O)cc1 [Compound No. 4-86, 4-(4-Hexylphenyl)-5-hydroxy-1-(2-methyl-1-(p-tolyl)propan-2-yl)-1H-pyrazole-3-carbonitrile]	C (C for expansion efficiencies of at least 1.5 and less than 3)
	CON=C(C)c1c(C(C)C)nn(C(C)(C)Cc2ccccc2)c1O [Compound No. 4-89, 1-(5-Hydroxy-3-isopropyl-1-(2-methyl-1-phenylpropan-2-yl)-1H-pyrazol-4-yl)ethanone O-methyl oxime]	C (C for expansion efficiencies of at least 1.5 and less than 3)
149 to 151	CCCCCCc1ccc(-c2cnn(C(C)(C)Cc3ccc(C)cc3)c2O)cc1 [Compound No. 4-90, 4-(4-Hexylphenyl)-1-(2-methyl-1-(p-tolyl)propan-2-yl)-1H-pyrazol-5-ol]	
